From paper PMC4919188 (Nature, 2016)

Experiments:
[1] = tested on: nerve-injury evoked mechanical allodynia; conditions: cited from earlier work
[2] = tested on: mouse paw mechanical response threshold; test: Von Frey test, mechanical sensitivity; type: in vivo; conditions: native Hm1b 500 nM intraplantar, n = 5
[3] = tested on: high-threshold colonic afferents from healthy mice; test: Ex vivo gut-nerve recording, high-threshold colonic afferents, healthy mice; set-up: species or system mouse; conditions: ICA-121432 with or without Hm1a (100 nM), afferents/total
P0 mouse TG neurons = test: Ratiometric calcium imaging, P0 mouse TG neurons; type: cell-based; conditions: ICA-121431 500 nM, SGTx1 500 nM; P0 mouse neurons (Extended Data Fig. 1d)
[4] = tested on: high-threshold colonic afferents from CVH mice; test: Ex vivo gut-nerve recording, high-threshold colonic afferents, CVH mice; set-up: species or system mouse

NC(=O)c1cn(Cc2c(F)cccc2F)nn1 [rufinamide]
effect on nerve-injury evoked mechanical allodynia [1]: diminish nerve-injury evoked mechanical allodynia

Hm1b: inhibitor cysteine knot (ICK) peptide from venom of the tarantula Heteroscodra maculata
mechanical sensitization compared with Hm1a [2]: Equivalent mechanical sensitization

O=C(Nc1ccc(S(=O)(=O)Nc2nccs2)cc1)C(c1ccccc1)c1ccccc1 [ICA-121431]
afferents unaltered by ICA [3]: 5/10 | block of SGTx1-evoked calcium responses (P0 mouse TG neurons): only partially blocked | sensitizing effects of Hm1a ([4]; ICA-121431 with Hm1a): blocked the sensitizing effects of Hm1a | afferents unaltered by ICA ([4]; ICA-121432 with or without Hm1a, afferents/total): 3/10
